In patent publication US20260262643A1, “HERBICIDAL BENZOXAZINES” (FMC CORPORATION, priority 2022, published 2026):

Experiments:
Pigweed, Redroot [1] = experiment: Test A preemergence; assay type: in vivo, Amaranthus retroflexus; settings: 1000 g ai/ha, 0 to 100 scale (0 no effect, 100 complete control), 10 days
Source text: (§1) Seeds of plant species selected from barnyardgrass (Echinochloa crusgalli), blackgrass (Alopecurus myosuroides), corn (Zea mays), foxtail, giant (giant foxtail, Setaria faberi), goosegrass (Eleusine indica), kochia (Bassia scoparia), oat, wild (wild oat, Avena fatua), pigweed, palmer (palmer amaranth, palmer pigweed, Amaranthus palmeri), Pigweed, Redroot (redroot pigweed, Amaranthus retroflexus), ragweed (common ragweed, Ambrosia artemisiifolia), ryegrass, Italian (italian ryegrass, Lolium multiflorum), soybean (Glycine max), and wheat (Triticum aestivum) were planted into a blend of loam soil and sand and treated preemergence with a directed soil spray using test chemicals formulated in a non-phytotoxic solvent mixture which included a surfactant. At the same time, plants selected from these crops and weed species and also galium (catchweed bedstraw, Galium aparine) and horseweed (Erigeron canadensis) were planted in pots containing the same blend of loam soil and sand and treated with postemergence applications of test chemicals formulated in the same manner. Plants ranged in height from 2 to 10 cm and were in the one- to two-leaf stage for the postemergence treatment. Treated plants and untreated controls were maintained in a greenhouse for 10 days, after which time all treated plants were compared to untreated controls and visually evaluated for injury. Plant response ratings, summarized in Table A, are based on a 0 to 100 scale where 0 is no effect and 100 is complete control. A dash (-) response means no test result.

barnyardgrass [2] = experiment: Test A postemergence; assay type: in vivo, Echinochloa crusgalli; settings: 1000 g ai/ha, Postemergence; 0 to 100 scale
Outline: (§2)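 Visual injury ratings on a 0–100 scale (100 = complete control) versus untreated controls, taken 10 days after treatment in greenhouse. Preemergence: directed soil spray onto seeded loam/sand. Postemergence: foliar application at one- to two-leaf stage, plants 2–10 cm. Formulation: non-phytotoxic solvent plus surfactant.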

ryegrass, Italian [3] = experiment: Test A postemergence; assay type: in vivo, Lolium multiflorum; settings: 1000 g ai/ha, Postemergence; 0 to 100 scale
Outline: as §2

kochia [4] = experiment: Test A preemergence; assay type: in vivo, Bassia scoparia; settings: 1000 g ai/ha, 0 to 100 scale (0 no effect, 100 complete control), 10 days
Outline: as §2

ryegrass, Italian [5] = experiment: Test A preemergence; assay type: in vivo, Lolium multiflorum; settings: 1000 g ai/ha, 0 to 100 scale (0 no effect, 100 complete control), 10 days
Outline: as §2

barnyardgrass [6] = experiment: Test A preemergence; assay type: in vivo, Echinochloa crusgalli; settings: 1000 g ai/ha, 0 to 100 scale (0 no effect, 100 complete control), 10 days
Outline: as §2

foxtail, giant [7] = experiment: Test A preemergence; assay type: in vivo, Setaria faberi; settings: 1000 g ai/ha, 0 to 100 scale (0 no effect, 100 complete control), 10 days
Outline: as §2

kochia [8] = experiment: Test A postemergence; assay type: in vivo, Bassia scoparia; settings: 1000 g ai/ha, Postemergence; 0 to 100 scale
Outline: as §2

galium = experiment: Test A postemergence; assay type: in vivo, Galium aparine; settings: 1000 g ai/ha, Postemergence; 0 to 100 scale
Outline: as §2

wheat = experiment: Test A postemergence; assay type: in vivo, Triticum aestivum; settings: 1000 g ai/ha, Postemergence; 0 to 100 scale
Outline: as §2

ragweed [9] = experiment: Test A postemergence; assay type: in vivo, Ambrosia artemisiifolia; settings: 1000 g ai/ha, Postemergence; 0 to 100 scale
Outline: as §2

ragweed [10] = experiment: Test A preemergence; assay type: in vivo, Ambrosia artemisiifolia; settings: 1000 g ai/ha, 0 to 100 scale (0 no effect, 100 complete control), 10 days
Outline: as §2

corn = experiment: Test A postemergence; assay type: in vivo, Zea mays; settings: 1000 g ai/ha, Postemergence; 0 to 100 scale
Outline: as §2

Pigweed, Redroot [11] = experiment: Test A postemergence; assay type: in vivo, Amaranthus retroflexus; settings: 1000 g ai/ha, Postemergence; 0 to 100 scale
Source text: as §1

blackgrass = experiment: Test A postemergence; assay type: in vivo, Alopecurus myosuroides; settings: 1000 g ai/ha, Postemergence; 0 to 100 scale
Outline: as §2

foxtail, giant [12] = experiment: Test A postemergence; assay type: in vivo, Setaria faberi; settings: 1000 g ai/ha, Postemergence; 0 to 100 scale
Outline: as §2

rice = experiment: Test B flooded paddy test; assay type: in vivo, Oryza sativa; settings: 250 g ai/ha, Flood, 13 days, 0 to 100 scale (0 no effect, 100 complete control)
Outline: (§3)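 Species grown to 2-leaf stage; pots flooded 3 cm above soil and compound applied directly to paddy water, depth maintained throughout. After 13 days in greenhouse, plants visually rated against controls on 0–100 scale (0 no effect, 100 complete control); dash means no result.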

sedge, umbrella = experiment: Test B flooded paddy test; assay type: in vivo, Cyperus difformis; settings: 250 g ai/ha, Flood, 13 days, 0 to 100 scale (0 no effect, 100 complete control)
Outline: as §3

ducksalad = experiment: Test B flooded paddy test; assay type: in vivo, Heteranthera limosa; settings: 250 g ai/ha, Flood, 13 days, 0 to 100 scale (0 no effect, 100 complete control)
Outline: as §3

barnyardgrass [13] = experiment: Test B flooded paddy test; assay type: in vivo, Echinochloa crus-galli; settings: 250 g ai/ha, Flood, 13 days, 0 to 100 scale (0 no effect, 100 complete control)
Outline: as §3

Row | Compound | Plant response rating, Pigweed, Redroot (Pigweed, Redroot [1]) | Plant response rating, Barnyardgrass (barnyardgrass [2]) | Plant response rating, Ryegrass, Italian (ryegrass, Italian [3]) | Plant response rating, Kochia (kochia [4]) | Plant response rating, Ryegrass, Italian (ryegrass, Italian [5]) | Plant response rating, Barnyardgrass (barnyardgrass [6]) | Plant response rating, Foxtail, Giant (foxtail, giant [7]) | Plant response rating, Kochia (kochia [8]) | Plant response rating, Galium (galium) | Plant response rating, Wheat (wheat) | Plant response rating, Ragweed (ragweed [9]) | Plant response rating, Ragweed (ragweed [10]) | Plant response rating, Corn (corn) | Plant response rating, Pigweed, Redroot (Pigweed, Redroot [11]) | Plant response rating, Blackgrass (blackgrass) | Plant response rating, Foxtail, Giant (foxtail, giant [12]) | Plant response rating, Rice (rice) | Plant response rating, Sedge, Umbrella (sedge, umbrella) | Plant response rating, Ducksalad (ducksalad) | Plant response rating, Barnyardgrass (barnyardgrass [13])
1 | CCC1CN(C(=O)c2ccnc(-n3cncn3)c2)c2cccc(I)c2O1 (stereo not shown) [Compound 17] | 100 | 0 | 0 | 30 | 0 | 0 | 0 | 10 | 0 | 0 | 0 | 0 | 0 | 0 | 0 | 0 |  |  |  | 
2 | CC1CN(C(=O)c2cccc(-n3cncn3)c2)c2cccc(Br)c2O1 (stereo not shown) [Compound 25] | 100 | 50 | 90 | 30 | 100 | 90 | 100 | 50 |  | 70 | 0 | 0 | 70 | 40 | 90 | 90 | 0 | 0 | 35 | 0
3 | Cc1cccc2c1OC(C)CN2C(=O)c1ccc(C#N)c(-n2cncn2)c1 (stereo not shown) [Compound 29] | 60 | 70 | 50 | 20 | 90 | 90 | 100 | 10 |  | 60 | 0 | 0 | 80 | 50 | 70 | 90 | 0 | 0 | 0 | 0
4 | C#Cc1cccc2c1OC(C)CN2C(=O)c1cccc(-n2cncn2)c1 (stereo not shown) [Compound 30] | 100 | 20 | 70 | 20 | 100 | 30 | 80 | 10 |  | 40 | 0 | 0 | 10 | 30 | 70 | 40 | 0 | 0 | 0 | 0
5 | CC1CN(C(=O)c2cccc(-n3cncn3)c2)c2ccccc2O1 (stereo not shown) [Compound 31] | 0 | 30 | 70 | 30 | 90 | 80 | 100 | 20 |  | 40 | 0 | 20 | 30 | 0 | 50 | 80 |  |  |  | 
6 | C[C@H]1CN(C(=O)c2cccc(-c3ccncc3)c2)c2cccc(Cl)c2O1 [Compound 123] | 30 | 20 | 30 | 30 | 30 | 40 | 0 | 20 | 50 | 0 | 0 | 30 | 0 | 60 | 20 | 10 |  |  |  | 
7 | C[C@H]1CN(C(=O)c2cccc(-n3cnnc3)c2)c2cccc(Cl)c2O1 [Compound 128] | 0 | 30 | 0 | 40 | 60 | 0 | 50 | 0 | 30 | 0 | 30 | 0 | 0 | 0 | 30 | 20 |  |  |  | 
8 | C[C@H]1CN(C(=O)c2cccc(-n3cccn3)c2)c2cccc(Cl)c2O1 [Compound 129] | 20 | 20 | 0 | 20 | 50 | 20 | 0 | 10 | 30 | 0 | 0 | 0 | 0 | 70 | 30 | 10 |  |  |  | 
